The values that follow are results of earlier work, collected in patent US20230360801A1, “METHODS AND SYSTEMS OF IDENTIFYING INDIVIDUALS FOR PERIOPERATIVE NEUROCOGNITIVE DISORDER AND/OR POST-VIRAL COGNITIVE IMPAIRMENT” (Cambridge Cognition Limited, priority 2021, published 2023).

For orientation: logP means the decadic logarithm of the partition coefficient of the neutral form, usually between octanol and water. As for `CC(C)(Oc1ccc(C(=O)c2ccc(Cl)cc2)cc1)C(=O)O` [fenofibric acid], the lipophilicity (logP) is 3.9.
